Read-outs that look alike come from different tables or passages of the source.
Key:
Assay in all cases: KINOMEscan assay (Eurofins DiscoverX)
Assay type in all cases: binding
kinome (kinase panel) [1] = biological target: T1, kinome (kinase panel) (Homo sapiens, UniProt O14730); conditions: RIOK3; 1000 nM; read-out: Percent Control
T1 construct: purchased Eurofins DiscoverX

kinome (kinase panel) [2] = biological target: T2, kinome (kinase panel) (Homo sapiens, UniProt P32298); conditions: GRK4; 1000 nM; read-out: Percent Control
T2 construct: purchased Eurofins DiscoverX

kinome (kinase panel) [3] = biological target: T3, kinome (kinase panel) (Homo sapiens, UniProt P08581, M1250T); conditions: […]; 1000 nM; read-out: Percent Control
T3 construct: purchased Eurofins DiscoverX

kinome (kinase panel) [4] = biological target: T4, kinome (kinase panel) (Homo sapiens, UniProt Q9H0K1); conditions: SIK2; 1000 nM; read-out: Percent Control
T4 construct: purchased Eurofins DiscoverX

kinome (kinase panel) [5] = biological target: T5, kinome (kinase panel) (Homo sapiens, UniProt Q15759); conditions: p38-beta (Entrez MAPK11); 1000 nM; read-out: Percent Control
T5 construct: purchased Eurofins DiscoverX

kinome (kinase panel) [6] = biological target: T6, kinome (kinase panel) (Homo sapiens, UniProt P29323); conditions: EPHB2; 1000 nM; read-out: Percent Control
T6 construct: purchased Eurofins DiscoverX

kinome (kinase panel) [7] = biological target: T7, kinome (kinase panel) (Homo sapiens, UniProt P15056, V600E); conditions: […]; 1000 nM; read-out: Percent Control
T7 construct: purchased Eurofins DiscoverX

kinome (kinase panel) [8] = biological target: T8, kinome (kinase panel) (Homo sapiens, UniProt Q00526); conditions: CDK3; 1000 nM; read-out: Percent Control
T8 construct: purchased Eurofins DiscoverX

kinome (kinase panel) [9] = biological target: T9, kinome (kinase panel) (Homo sapiens, UniProt P42336, C420R); conditions: read-out: Percent Control
T9 construct: purchased Eurofins DiscoverX

kinome (kinase panel) [10] = biological target: T10, kinome (kinase panel) (Homo sapiens, UniProt Q99558); conditions: NIK (Entrez MAP3K14); 1000 nM; read-out: Percent Control
T10 construct: purchased Eurofins DiscoverX

kinome (kinase panel) [11] = biological target: T11, kinome (kinase panel) (Homo sapiens, UniProt P21802); conditions: FGFR2; 1000 nM; read-out: Percent Control
T11 construct: purchased Eurofins DiscoverX

kinome (kinase panel) [12] = biological target: T12, kinome (kinase panel) (Homo sapiens, UniProt Q9Y5S2); conditions: MRCKB (Entrez CDC42BPB); 1000 nM; read-out: Percent Control
T12 construct: purchased Eurofins DiscoverX

kinome (kinase panel) [13] = biological target: T13, kinome (kinase panel) (Homo sapiens, UniProt Q04759); conditions: PRKCQ; 1000 nM; read-out: Percent Control
T13 construct: purchased Eurofins DiscoverX

kinome (kinase panel) [14] = biological target: T14, kinome (kinase panel) (Homo sapiens, UniProt Q9C098); conditions: DCAMKL3 (Entrez DCLK3); 1000 nM; read-out: Percent Control
T14 construct: purchased Eurofins DiscoverX

kinome (kinase panel) [15] = biological target: T15, kinome (kinase panel) (Homo sapiens, UniProt Q9Y6R4); conditions: MAP3K4; 1000 nM; read-out: Percent Control
T15 construct: purchased Eurofins DiscoverX

kinome (kinase panel) [16] = biological target: T16, kinome (kinase panel) (Homo sapiens, UniProt P48736); conditions: PIK3CG; 1000 nM; read-out: Percent Control
T16 construct: purchased Eurofins DiscoverX

kinome (kinase panel) [17] = biological target: T17, kinome (kinase panel) (Homo sapiens, UniProt Q9UQM7); conditions: CAMK2A; 1000 nM; read-out: Percent Control
T17 construct: purchased Eurofins DiscoverX

kinome (kinase panel) [18] = biological target: T18, kinome (kinase panel) (Homo sapiens, UniProt Q13464); conditions: ROCK1; 1000 nM; read-out: Percent Control
T18 construct: purchased Eurofins DiscoverX

kinome (kinase panel) [19] = biological target: T19, kinome (kinase panel) (Homo sapiens, UniProt Q9H422); conditions: HIPK3; 1000 nM; read-out: Percent Control
T19 construct: purchased Eurofins DiscoverX

kinome (kinase panel) [20] = biological target: T20, kinome (kinase panel) (Homo sapiens, UniProt O96013); conditions: PAK4; 1000 nM; read-out: Percent Control
T20 construct: purchased Eurofins DiscoverX

kinome (kinase panel) [21] = biological target: T21, kinome (kinase panel) (Homo sapiens, UniProt P10721, A829P); conditions: […]; 1000 nM; read-out: Percent Control
T21 construct: purchased Eurofins DiscoverX

kinome (kinase panel) [22] = biological target: T22, kinome (kinase panel) (Homo sapiens, UniProt Q96L34); conditions: MARK4; 1000 nM; read-out: Percent Control
T22 construct: purchased Eurofins DiscoverX

kinome (kinase panel) [23] = biological target: T23, kinome (kinase panel) (Homo sapiens, UniProt P00533, DEL746-750); conditions: EGFR(E746-A750del); 1000 nM; read-out: Percent Control
T23 construct: purchased Eurofins DiscoverX

kinome (kinase panel) [24] = biological target: T24, kinome (kinase panel) (Homo sapiens, UniProt P36888); conditions: 1000 nM, read-out: Percent Control
T24 construct: purchased Eurofins DiscoverX

kinome (kinase panel) [25] = biological target: T25, kinome (kinase panel) (Homo sapiens, UniProt P54764); conditions: EPHA4; 1000 nM; read-out: Percent Control
T25 construct: purchased Eurofins DiscoverX

kinome (kinase panel) [26] = biological target: T26, kinome (kinase panel) (Homo sapiens, UniProt Q16584); conditions: MLK3 (Entrez MAP3K11); 1000 nM; read-out: Percent Control
T26 construct: purchased Eurofins DiscoverX

kinome (kinase panel) [27] = biological target: T27, kinome (kinase panel) (Homo sapiens, UniProt Q6ZWH5); conditions: NEK10; 1000 nM; read-out: Percent Control
T27 construct: purchased Eurofins DiscoverX

kinome (kinase panel) [28] = biological target: T28, kinome (kinase panel) (Homo sapiens, UniProt Q9BRS2); conditions: RIOK1; 1000 nM; read-out: Percent Control
T28 construct: purchased Eurofins DiscoverX

kinome (kinase panel) [29] = biological target: T29, kinome (kinase panel) (Homo sapiens, UniProt Q13557); conditions: CAMK2D; 1000 nM; read-out: Percent Control
T29 construct: purchased Eurofins DiscoverX

kinome (kinase panel) [30] = biological target: T30, kinome (kinase panel) (Homo sapiens, UniProt P24941); conditions: CDK2; 1000 nM; read-out: Percent Control
T30 construct: purchased Eurofins DiscoverX

kinome (kinase panel) [31] = biological target: T31, kinome (kinase panel) (Homo sapiens, UniProt P08581); conditions: MET; 1000 nM; read-out: Percent Control
T31 construct: purchased Eurofins DiscoverX

kinome (kinase panel) [32] = biological target: T32, kinome (kinase panel) (Homo sapiens, UniProt Q9NY57); conditions: YANK2 (STK32B); 1000 nM; read-out: Percent Control
T32 construct: purchased Eurofins DiscoverX

T24 sequence (P36888 27-993): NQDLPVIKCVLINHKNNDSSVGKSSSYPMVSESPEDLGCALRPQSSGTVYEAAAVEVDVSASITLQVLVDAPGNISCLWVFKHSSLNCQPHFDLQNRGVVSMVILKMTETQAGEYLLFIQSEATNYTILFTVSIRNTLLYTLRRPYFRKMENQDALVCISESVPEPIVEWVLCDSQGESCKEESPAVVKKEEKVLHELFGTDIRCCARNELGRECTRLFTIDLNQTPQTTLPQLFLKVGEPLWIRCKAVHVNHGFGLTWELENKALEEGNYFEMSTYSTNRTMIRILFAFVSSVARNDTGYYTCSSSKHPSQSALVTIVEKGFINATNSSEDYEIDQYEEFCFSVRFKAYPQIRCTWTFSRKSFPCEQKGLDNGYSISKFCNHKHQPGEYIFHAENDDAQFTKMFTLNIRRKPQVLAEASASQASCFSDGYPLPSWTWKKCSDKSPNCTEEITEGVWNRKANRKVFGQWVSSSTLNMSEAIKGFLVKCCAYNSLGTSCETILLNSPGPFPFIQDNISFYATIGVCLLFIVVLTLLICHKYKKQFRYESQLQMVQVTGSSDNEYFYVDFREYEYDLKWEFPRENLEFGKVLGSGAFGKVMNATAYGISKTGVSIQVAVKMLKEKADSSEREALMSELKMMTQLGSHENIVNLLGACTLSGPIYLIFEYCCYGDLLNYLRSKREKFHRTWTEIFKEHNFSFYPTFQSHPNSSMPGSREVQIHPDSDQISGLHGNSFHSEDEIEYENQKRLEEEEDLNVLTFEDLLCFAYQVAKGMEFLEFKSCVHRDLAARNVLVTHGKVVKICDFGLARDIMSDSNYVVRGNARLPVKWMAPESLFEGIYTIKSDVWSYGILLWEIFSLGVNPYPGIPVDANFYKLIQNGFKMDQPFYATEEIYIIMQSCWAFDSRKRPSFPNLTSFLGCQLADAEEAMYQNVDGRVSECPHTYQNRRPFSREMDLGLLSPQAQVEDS
T8 sequence (Q00526 whole entry): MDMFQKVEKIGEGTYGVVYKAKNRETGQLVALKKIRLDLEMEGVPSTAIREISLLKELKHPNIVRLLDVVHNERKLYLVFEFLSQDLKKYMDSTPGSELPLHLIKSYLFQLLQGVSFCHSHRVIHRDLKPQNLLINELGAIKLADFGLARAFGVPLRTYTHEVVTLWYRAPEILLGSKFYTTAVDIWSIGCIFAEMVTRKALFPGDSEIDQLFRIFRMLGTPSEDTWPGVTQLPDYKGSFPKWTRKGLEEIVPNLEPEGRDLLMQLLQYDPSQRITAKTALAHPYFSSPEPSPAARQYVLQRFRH
T11 sequence (P21802 22-821): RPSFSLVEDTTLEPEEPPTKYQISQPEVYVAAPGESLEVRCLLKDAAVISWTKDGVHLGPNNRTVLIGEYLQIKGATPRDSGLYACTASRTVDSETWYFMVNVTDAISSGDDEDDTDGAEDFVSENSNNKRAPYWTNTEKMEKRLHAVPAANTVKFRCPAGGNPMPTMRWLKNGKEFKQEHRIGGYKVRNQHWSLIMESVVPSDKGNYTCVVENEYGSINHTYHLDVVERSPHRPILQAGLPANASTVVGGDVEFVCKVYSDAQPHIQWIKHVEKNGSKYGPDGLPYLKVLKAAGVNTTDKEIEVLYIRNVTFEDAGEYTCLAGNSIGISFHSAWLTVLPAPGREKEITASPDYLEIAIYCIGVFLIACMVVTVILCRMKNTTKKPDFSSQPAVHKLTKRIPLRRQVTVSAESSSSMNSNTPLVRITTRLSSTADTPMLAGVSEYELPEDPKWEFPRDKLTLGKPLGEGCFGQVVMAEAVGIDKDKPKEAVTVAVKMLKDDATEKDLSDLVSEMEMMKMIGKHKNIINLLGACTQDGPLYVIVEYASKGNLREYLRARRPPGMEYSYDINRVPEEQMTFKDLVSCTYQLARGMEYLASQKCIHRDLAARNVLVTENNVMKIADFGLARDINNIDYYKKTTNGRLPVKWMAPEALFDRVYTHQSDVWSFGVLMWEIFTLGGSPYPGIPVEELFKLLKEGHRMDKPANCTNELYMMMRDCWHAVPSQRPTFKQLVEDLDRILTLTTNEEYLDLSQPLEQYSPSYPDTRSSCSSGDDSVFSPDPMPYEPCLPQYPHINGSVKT
T20 sequence (O96013 whole entry): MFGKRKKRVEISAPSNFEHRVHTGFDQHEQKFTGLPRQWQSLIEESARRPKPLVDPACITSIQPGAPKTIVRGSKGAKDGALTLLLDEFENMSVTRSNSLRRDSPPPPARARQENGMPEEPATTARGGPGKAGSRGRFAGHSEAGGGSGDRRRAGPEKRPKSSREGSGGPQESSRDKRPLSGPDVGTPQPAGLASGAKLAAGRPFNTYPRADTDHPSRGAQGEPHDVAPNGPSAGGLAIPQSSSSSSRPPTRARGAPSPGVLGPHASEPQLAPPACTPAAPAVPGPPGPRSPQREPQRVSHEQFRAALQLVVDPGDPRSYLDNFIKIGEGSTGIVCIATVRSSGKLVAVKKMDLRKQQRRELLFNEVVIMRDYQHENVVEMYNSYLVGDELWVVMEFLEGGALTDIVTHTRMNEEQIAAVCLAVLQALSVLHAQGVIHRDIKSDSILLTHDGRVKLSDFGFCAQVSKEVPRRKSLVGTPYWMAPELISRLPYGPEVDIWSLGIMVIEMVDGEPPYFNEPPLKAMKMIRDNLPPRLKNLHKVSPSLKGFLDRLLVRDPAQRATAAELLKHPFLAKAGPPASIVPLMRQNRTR
T29 sequence (Q13557 whole entry): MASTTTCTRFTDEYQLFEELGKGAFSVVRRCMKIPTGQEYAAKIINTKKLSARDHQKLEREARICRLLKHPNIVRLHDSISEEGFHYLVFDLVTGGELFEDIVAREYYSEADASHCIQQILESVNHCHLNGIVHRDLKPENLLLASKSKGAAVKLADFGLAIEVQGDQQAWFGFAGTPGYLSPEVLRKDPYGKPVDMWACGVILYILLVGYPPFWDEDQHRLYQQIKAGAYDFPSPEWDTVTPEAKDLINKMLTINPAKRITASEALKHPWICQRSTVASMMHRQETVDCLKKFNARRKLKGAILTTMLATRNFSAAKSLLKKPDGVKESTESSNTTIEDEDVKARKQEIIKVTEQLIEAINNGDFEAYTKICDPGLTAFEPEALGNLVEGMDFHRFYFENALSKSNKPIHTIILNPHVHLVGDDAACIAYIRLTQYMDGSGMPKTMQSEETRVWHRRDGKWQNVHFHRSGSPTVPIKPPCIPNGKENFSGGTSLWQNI
T7 sequence (P15056 whole entry V600E): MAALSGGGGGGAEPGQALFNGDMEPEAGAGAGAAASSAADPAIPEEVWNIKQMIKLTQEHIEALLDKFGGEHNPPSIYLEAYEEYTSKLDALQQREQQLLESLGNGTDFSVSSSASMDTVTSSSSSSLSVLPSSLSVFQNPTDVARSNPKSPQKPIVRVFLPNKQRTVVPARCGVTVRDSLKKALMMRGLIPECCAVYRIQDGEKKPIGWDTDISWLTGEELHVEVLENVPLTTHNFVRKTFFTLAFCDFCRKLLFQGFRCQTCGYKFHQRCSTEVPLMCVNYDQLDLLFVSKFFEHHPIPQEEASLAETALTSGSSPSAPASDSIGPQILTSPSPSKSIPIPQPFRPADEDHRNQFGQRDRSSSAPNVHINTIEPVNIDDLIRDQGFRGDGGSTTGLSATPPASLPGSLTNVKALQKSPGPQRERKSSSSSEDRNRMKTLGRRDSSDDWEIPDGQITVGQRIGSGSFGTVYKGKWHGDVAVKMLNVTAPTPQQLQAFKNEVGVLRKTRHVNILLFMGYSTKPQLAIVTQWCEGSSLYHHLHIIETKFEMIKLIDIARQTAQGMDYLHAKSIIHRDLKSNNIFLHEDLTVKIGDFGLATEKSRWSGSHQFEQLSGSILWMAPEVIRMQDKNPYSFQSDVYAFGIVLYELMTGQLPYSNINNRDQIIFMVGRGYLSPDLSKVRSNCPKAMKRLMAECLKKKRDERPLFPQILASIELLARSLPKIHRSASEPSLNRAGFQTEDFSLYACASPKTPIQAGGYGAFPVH
T13 sequence (Q04759 whole entry): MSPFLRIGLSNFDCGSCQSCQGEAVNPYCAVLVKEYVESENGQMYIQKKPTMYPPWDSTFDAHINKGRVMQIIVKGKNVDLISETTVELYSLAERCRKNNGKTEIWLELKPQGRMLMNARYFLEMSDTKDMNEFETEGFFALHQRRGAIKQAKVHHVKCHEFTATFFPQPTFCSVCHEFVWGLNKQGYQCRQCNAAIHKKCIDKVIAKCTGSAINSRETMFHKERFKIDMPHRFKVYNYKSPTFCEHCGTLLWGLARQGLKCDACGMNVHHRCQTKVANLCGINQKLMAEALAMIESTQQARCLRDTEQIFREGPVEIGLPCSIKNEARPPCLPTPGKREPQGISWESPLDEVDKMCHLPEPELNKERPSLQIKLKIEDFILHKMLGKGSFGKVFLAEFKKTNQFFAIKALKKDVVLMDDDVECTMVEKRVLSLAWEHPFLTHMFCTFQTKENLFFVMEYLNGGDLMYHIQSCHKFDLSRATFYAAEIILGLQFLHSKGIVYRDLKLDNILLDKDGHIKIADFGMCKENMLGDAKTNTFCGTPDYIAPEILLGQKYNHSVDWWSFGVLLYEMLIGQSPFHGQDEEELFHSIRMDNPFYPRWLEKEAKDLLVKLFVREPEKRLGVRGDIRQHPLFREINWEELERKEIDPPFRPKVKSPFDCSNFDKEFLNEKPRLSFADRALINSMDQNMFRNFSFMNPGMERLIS
T5 sequence (Q15759 whole entry): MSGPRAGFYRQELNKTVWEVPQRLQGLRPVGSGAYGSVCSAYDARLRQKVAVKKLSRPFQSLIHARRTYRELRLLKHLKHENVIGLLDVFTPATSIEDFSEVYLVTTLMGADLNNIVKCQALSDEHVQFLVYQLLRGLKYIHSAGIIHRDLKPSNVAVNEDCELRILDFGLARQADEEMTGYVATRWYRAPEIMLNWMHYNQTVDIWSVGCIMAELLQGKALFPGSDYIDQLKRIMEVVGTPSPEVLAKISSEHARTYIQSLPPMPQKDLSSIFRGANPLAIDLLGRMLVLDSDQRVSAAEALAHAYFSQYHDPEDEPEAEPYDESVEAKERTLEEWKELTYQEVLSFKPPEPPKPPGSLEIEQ

In the case of `CN(C)C(=O)c1cc2cnc(Nc3ccc(-c4csc5c(=O)cc(N6CCOCC6)oc45)cc3)nc2n1C1CCCC1` [SRX3177], the remaining binding at 1 µM (kinome (kinase panel) [1]) is reported as 21%, the remaining binding at 1 µM (kinome (kinase panel) [2]) is reported as 39% and the remaining binding at 1 µM (kinome (kinase panel) [3]) is reported as 86%. For the same compound, the remaining binding at 1 µM (kinome (kinase panel) [4]) was 58%, the remaining binding at 1 µM (kinome (kinase panel) [5]) was 100% and the remaining binding at 1 µM (kinome (kinase panel) [6]) was 97%. The remaining binding at 1 µM (kinome (kinase panel) [7]) was 64%, the remaining binding at 1 µM (kinome (kinase panel) [8]) was 69% and the remaining binding at 1 µM (kinome (kinase panel) [9]) was 81%. The remaining binding at 1 µM (kinome (kinase panel) [10]) was 45%, the remaining binding at 1 µM (kinome (kinase panel) [11]) was 86% and the remaining binding at 1 µM (kinome (kinase panel) [12]) was 96%. For the same compound, the remaining binding at 1 µM (kinome (kinase panel) [13]) was 73%, the remaining binding at 1 µM (kinome (kinase panel) [14]) was 100% and the remaining binding at 1 µM (kinome (kinase panel) [15]) was 90%. For the same compound, the remaining binding at 1 µM (kinome (kinase panel) [16]) was 85%, the remaining binding at 1 µM (kinome (kinase panel) [17]) was 76% and the remaining binding at 1 µM (kinome (kinase panel) [18]) was 87%. The remaining binding at 1 µM (kinome (kinase panel) [19]) was 77%, the remaining binding at 1 µM (kinome (kinase panel) [20]) was 84% and the remaining binding at 1 µM (kinome (kinase panel) [21]) was 1.6%. It also gave a remaining binding at 1 µM (kinome (kinase panel) [22]) of 100%, a remaining binding at 1 µM (kinome (kinase panel) [23]) of 72% and a remaining binding at 1 µM (kinome (kinase panel) [24]; FLT3-autoinhibited) of 63%. The remaining binding at 1 µM (kinome (kinase panel) [24]; FLT3) was 26%, the remaining binding at 1 µM (kinome (kinase panel) [25]) was 98% and the remaining binding at 1 µM (kinome (kinase panel) [26]) was 73%. It also gave a remaining binding at 1 µM (kinome (kinase panel) [27]) of 100%, a remaining binding at 1 µM (kinome (kinase panel) [28]) of 18% and a remaining binding at 1 µM (kinome (kinase panel) [29]) of 65%. It also gave a remaining binding at 1 µM (kinome (kinase panel) [30]) of 72%, a remaining binding at 1 µM (kinome (kinase panel) [31]) of 80% and a remaining binding at 1 µM (kinome (kinase panel) [32]) of 100%.

— article PMC7385619, “A triple action CDK4/6-PI3K-BET inhibitor with augmented cancer cell cytotoxicity” (Cell Discovery, 2020)
